Two compounds from ChEMBL document CHEMBL5154887, “Novel CRBN-Recruiting Proteolysis-Targeting Chimeras as Degraders of Stimulator of Interferon Genes with In Vivo Anti-Inflammatory Efficacy” (J Med Chem, 2022) can be followed below.

One may read the DC50 as the concentration giving 50% degradation.

Data set [1] can be described thus: Cytotoxicity against mouse C17.2 cells assessed as reduction in cell viability at <10 uM by MTT assay. The data set is classed as toxicity, cell-based. To be noted: c17.2, 10 µM. On the technique in general: Tetrazolium assays rely on reduction of a dye to a coloured formazan, in cell work by metabolically active cells.
Data set [2] can be described thus: Cytotoxicity against HEK293-A cells assessed as reduction in cell viability at <10 uM by MTT assay. The format is toxicity, cell-based. To be noted: human.
Data set [3] addresses T1, Protein cereblon/Stimulator of interferon genes protein (Homo sapiens, UniProt Q96SW2+Q86WV6). As to the kind of experiment: Protac activity at CRBN/STING in human THP-1 cells assessed as increase in STING degradation at 10 uM incubated for 48 hrs by Western blot analysis relative to control. The format is cell-based. (In general: A western blot detects proteins with antibodies after separation by electrophoresis.)
Target sequence in this assay (Q86WV6 whole entry, looked up): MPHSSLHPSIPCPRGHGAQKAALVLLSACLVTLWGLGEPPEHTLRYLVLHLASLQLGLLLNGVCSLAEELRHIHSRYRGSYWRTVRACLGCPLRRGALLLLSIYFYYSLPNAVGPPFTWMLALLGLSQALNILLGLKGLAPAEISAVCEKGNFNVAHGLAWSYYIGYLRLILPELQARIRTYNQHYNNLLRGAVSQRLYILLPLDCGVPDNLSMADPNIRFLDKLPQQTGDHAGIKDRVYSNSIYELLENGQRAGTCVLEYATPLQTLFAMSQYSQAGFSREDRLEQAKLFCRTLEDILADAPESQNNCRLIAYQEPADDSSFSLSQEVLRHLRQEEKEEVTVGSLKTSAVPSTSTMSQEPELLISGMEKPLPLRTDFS
Target sequence in this assay (Q96SW2 whole entry, looked up): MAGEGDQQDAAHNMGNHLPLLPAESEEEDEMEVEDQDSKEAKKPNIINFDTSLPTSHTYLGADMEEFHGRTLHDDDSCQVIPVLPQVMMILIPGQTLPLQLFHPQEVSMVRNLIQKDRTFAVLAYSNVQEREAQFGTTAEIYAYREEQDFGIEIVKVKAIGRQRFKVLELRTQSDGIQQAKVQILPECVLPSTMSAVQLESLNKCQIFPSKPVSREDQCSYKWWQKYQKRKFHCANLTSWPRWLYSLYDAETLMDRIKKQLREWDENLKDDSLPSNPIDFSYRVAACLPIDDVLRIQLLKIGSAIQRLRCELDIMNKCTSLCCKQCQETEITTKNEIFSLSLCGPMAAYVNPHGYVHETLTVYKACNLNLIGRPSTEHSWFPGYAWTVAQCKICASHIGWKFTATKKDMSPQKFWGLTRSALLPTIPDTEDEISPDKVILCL

Data set [4] has as its target T1, Protein cereblon/Stimulator of interferon genes protein. As to the kind of experiment: Protac activity at CRBN/STING in human THP-1 cells assessed as increase in STING degradation incubated for 48 hrs by Western blot analysis. The format is cell-based.
Target sequence in this assay (Q96SW2 whole entry): as the sequence (Q96SW2 whole entry, looked up) above
Target sequence in this assay (Q86WV6 whole entry): as the sequence (Q86WV6 whole entry, looked up) above
In the next data set the test system is L02. The data set can be described thus: Cytotoxicity against human L02 cells assessed as reduction in cell viability at <10 uM by MTT assay. The format is toxicity, cell-based. The settings on record: l02, 10 µM.

As to `O=C(/C=C/C(=O)Nc1ccc(NC(=O)c2ccc([N+](=O)[O-])o2)cc1)NCCCCCNc1cccc2c1C(=O)N(C1CCC(=O)NC1=O)C2=O` (stereo not given), the Activity result in data set [1] is “Non-Toxic”; in data set [2] it was “Non-Toxic”; in data set [3], 62%; in the data set on L02, “Non-Toxic”. Besides, the half-maximal degradation concentration (DC50) in data set [4] was determined as 9.2 µM.

As for `O=C(/C=C/C(=O)Nc1ccc(NC(=O)c2ccc([N+](=O)[O-])o2)cc1)NCCCCNc1cccc2c1C(=O)N(C1CCC(=O)NC1=O)C2=O` (stereo not given), the Activity result in data set [1] was “Non-Toxic”; in data set [2], “Non-Toxic”; in data set [3], 22%; with L02, “Non-Toxic”. Moreover, in data set [4], the DC50 is above 10 µM.
